Laboratory results: US20170266186A1, “USE OF INHIBITORS OF BRUTON'S TYROSINE KINASE (BTK)” (Pharmacyclics LLC, priority 2011, published 2017)

The compounds below were run on cell lines (assay: combination of PCI-32765 with other drugs in cell lines). Conditions: not given.
Format: cell-based

Compound | interaction with PCI-32765 in combination
CN(C)Cc1c(C(=O)NCCOc2ccc(C(=O)NO)cc2)oc2ccccc12 [3-((dimethylamino)methyl)-N-(2-(4-(hydroxycarbamoyl)phenoxy)ethyl)benzofuran-2-carboxamide] | weak synergy
COc1cc(Nc2ncc(F)c(Nc3ccc4c(n3)NC(=O)C(C)(C)O4)n2)cc(OC)c1OC [Compound R-406] | weak synergy
Cn1c(CCCC(=O)O)nc2cc(N(CCCl)CCCl)ccc21 [bendamustine] | weak synergy
CC(C)C[C@H](NC(=O)[C@H](Cc1ccccc1)NC(=O)c1cnccn1)B(O)O [bortezomib] | weak synergy
N.N.O=C([O-])C1(C(=O)[O-])CCC1.[Pt+2] [carboplatin] | additivity
COc1cccc2c1C(=O)c1c(O)c3c(c(O)c1C2=O)C[C@@](O)(C(=O)CO)C[C@@H]3O[C@H]1C[C@H](N)[C@H](O)[C@H](C)O1 [doxorubicin] | additivity
Nc1ccn([C@@H]2O[C@H](CO)[C@@H](O)C2(F)F)c(=O)n1 [gemcitabine] | weak synergy
Nc1cccc2c1CN(C1CCC(=O)NC1=O)C2=O (stereo not shown) [lenalidomide] | weak synergy
CNC(=O)c1cc(Oc2ccc(NC(=O)Nc3ccc(Cl)c(C(F)(F)F)c3)cc2)ccn1 [sorafenib] | weak synergy
CC(=O)O[C@H]1C(=O)[C@@]2(C)[C@H]([C@H](OC(=O)c3ccccc3)[C@]3(O)C[C@H](OC(=O)[C@H](O)[C@@H](NC(=O)c4ccccc4)c4ccccc4)C(C)=C1C3(C)C)[C@]1(OC(C)=O)CO[C@@H]1C[C@@H]2O [taxol] | additivity
CO[C@H]1C[C@@H]2CC[C@@H](C)[C@@](O)(O2)C(=O)C(=O)N2CCCC[C@H]2C(=O)O[C@H]([C@H](C)C[C@@H]2CC[C@@H](OC(=O)C(C)(CO)CO)[C@H](OC)C2)CC(=O)[C@H](C)/C=C(\C)[C@@H](O)[C@@H](OC)C(=O)[C@H](C)C[C@H](C)/C=C/C=C/C=C/1C [temsirolimus] | additivity
CC[C@]1(O)C[C@H]2CN(CCc3c([nH]c4ccccc34)[C@@](C(=O)OC)(c3cc4c(cc3OC)N(C=O)[C@H]3[C@@](O)(C(=O)OC)[C@H](OC(C)=O)[C@]5(CC)C=CCN6CC[C@]43[C@@H]65)C2)C1 [vincristine] | additivity

These compounds were tested on DLBCL xenograft (assay: combination drug testing in a DLBCL xenograft). Conditions: initial experiment in a DLBCL xenograft.
Format: in vivo

Compound | interaction with PCI-32765 in combination
CC(C)C[C@H](NC(=O)[C@H](Cc1ccccc1)NC(=O)c1cnccn1)B(O)O [bortezomib] | greater than additivity
